Test results: US6140354A, “N-substituted aminotetralins as ligands for the neuropeptide Y Y5 receptor useful in the treatment of obesity and other disorders” (Ortho-McNeil Pharmaceutical, Inc., priority 1999, dated 2000)

Molecular target: T1, human neuropeptide Y5 receptor (Homo sapiens, UniProt Q15761)
T1 construct: expressed in transfected cells
T1 sequence (Q15761 1-445): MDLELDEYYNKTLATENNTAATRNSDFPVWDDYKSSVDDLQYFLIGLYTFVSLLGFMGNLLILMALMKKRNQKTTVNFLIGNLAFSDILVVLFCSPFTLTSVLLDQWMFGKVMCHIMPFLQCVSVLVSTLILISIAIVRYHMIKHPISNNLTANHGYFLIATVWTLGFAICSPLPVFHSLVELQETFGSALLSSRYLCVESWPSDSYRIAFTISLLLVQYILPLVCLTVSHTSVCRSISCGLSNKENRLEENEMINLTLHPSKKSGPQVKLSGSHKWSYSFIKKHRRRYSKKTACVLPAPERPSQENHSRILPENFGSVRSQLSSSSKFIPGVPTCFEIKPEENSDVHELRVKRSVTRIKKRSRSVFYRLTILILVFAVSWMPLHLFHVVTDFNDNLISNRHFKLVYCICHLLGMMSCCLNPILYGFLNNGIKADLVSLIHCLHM
Assay: NPY5 HTS Centrifugation Assay: competition with 125I-PYY for binding to NPY5-transfected HEK293 cell membranes
Conditions: 80 pM 125I-PYY, 1 hr room temperature, read-out: % Inh @ 3 uM (% Inhibition of ^125 I-PYY Binding)
Description: The compounds described in this invention were evaluated for binding to the human neuropeptide Y5 receptor.
The human NPY5 receptor cDNA (Genbank Accession number U66275) was inserted into the vector pClneo (Invitrogen) and transfected into human embryonic kidney cells (HEK-293) via Calcium phosphate method (Cullen 1987). Stably transfected cells were selected with G-418 (600 ug/mL). Stably transfected cells served as the source for the membranes for the NPY5 receptor binding assay.
NPY5-transfected HEK293 cells were grown to confluence in 150 cm^2 culture dishes. Cells were washed once with phosphate-buffered saline (Gibco Cat#14040-133). Cells were then incubated in phosphate-buffered saline without Calcium and without Magnesium, supplemented with 2 mM EDTA. Cells were incubated for 10 minutes at room temperature and the cells were collected by repetitive pipeting. Cells were formed into pellets and then frozen at -80 until needed. Frozen pellets were homogenized with a polytron at full speed for 12 seconds in a homogenization buffer (20 mM Tris HCl, 5 mM EDTA, pH 7.4). Homogenates were centrifuged for 5 minutes at 4C at 200 g. Supernatants were transferred to corex tubes and centrifuged for 25 minutes at 28,000 g. Pellets were re-suspended in Binding (20 mM HEPES, 10 mM NaCl, 0.22 mM KH2 PO4, 1.3 mM CaCl2, 0.8 mM MgSO4, pH 7.4). Membranes were kept on ice until use.
A competition binding assay, known to those skilled in the art, was used in which aminotetralins (I) compete with ^125 I-PYY for binding to cell membranes. In simple terms, the less ^125 I-PYY bound to the membranes implies that a compound is a good inhibitor (competitor). Bound ^125 I-PYY is determined by centrifugation of membranes, aspirating supernatant, washing away residual ^125 I-PYY and subsequently counting the bound sample in a g-counter.
Compounds to be tested were prepared as 10× stocks in binding buffer and added first to assay tubes (RIA vials, Sarstedt). Twenty (20) μL of each 10× compound stock is pipeted into vials and 80 μL of ^125 I-PYY (NEN catalog number NEX240), which has been diluted to a concentration of 200 pM in 0.25% BSA in binding buffer, is added to the compound tubes (final concentration of ^125 I-PYY is 80 pM). To each tube is added 100 μL of membranes and the mixture is agitated by pipeting 2 times. Samples are incubated for 1 hr at room temperature. Aluminum cast plates (Sarstedt) containing the vials are then centrifuged 10 minutes at 3200 rpm in a Sorvall RT6000. Supernatant is then aspirated. To each vial 400 μL PBS is added and this is then aspirated again. Vials are then put in carrier polypropylene 12×75 tube and counted in gamma counter (Packard). Non-specific binding is determined in the presence of 300 nM NPY. Percent inhibition of ^125 I-PYY binding is calculated by subtracting non-specific binding from the test samples (compound (I)), taking these counts and dividing by total binding, and multiplying by 100. Inhibitory concentration values (IC50) of compounds that show appreciable inhibition of ^125 I-PYY binding are calculated by obtaining percent inhibition of ^125 I-PYY binding values at different concentrations of the test compound, and using a graphing program such as GraphPad Prism (San Diego, Calif.) to calculate the concentration of test compound that inhibits fifty-percent of ^125 I-PYY binding (Table 4). These operations are known to those skilled in the art.

First: COc1ccc2c(c1)CCC(NC[C@H]1CC[C@H](CNS(=O)(=O)c3ccccc3)CC1)C2Cc1ccc2ccccc2c1 (relative stereo) [Compound 81]
Second: COc1ccc2c(c1)CC[C@H](NC[C@H]1CC[C@H](CNS(=O)(=O)c3ccc4ccccc4c3)CC1)[C@@H]2Cc1ccccc1 (relative stereo) [Compound 10, rac-[1α,2α(trans)]-N-[[[[[1,2,3,4-tetrahydro-6-methoxy-1-(phenylmethyl)-2-naphthalenyl]amino]methyl]-4-cyclohexyl]methyl]2-naphthalenesulfonamide]
The inhibition at 3 µM of the first is lower: 89% for the first, 96% for the second.

Going from `O=S(=O)(NC[C@H]1CC[C@H](CNC2CCc3cc(O)ccc3C2Cc2ccccc2)CC1)c1ccccc1` (stereo partly shown) [Compound 71] to `O=S(=O)(NC[C@H]1CC[C@H](CNC2CCc3cc(F)ccc3C2Cc2ccccc2)CC1)c1ccccc1` (relative stereo) [Compound 103], the inhibition at 3 µM falls from 102% to 98%.

Going from `COc1ccc2c(c1)CCC(NC[C@H]1CC[C@H](CNS(=O)(=O)c3ccccc3)CC1)C2Cc1ccc([N+](=O)[O-])cc1` (stereo partly shown) [Compound 87] to `COc1ccc2c(c1)CCC(NC[C@H]1CC[C@H](CNS(=O)(=O)c3ccccc3)CC1)C2Cc1ccc(Cl)cc1` (relative stereo) [Compound 97], the inhibition at 3 µM rises from 84% to 90%.

Going from `C=CC[C@@H]1c2ccc(OC)cc2CC[C@@H]1NC[C@H]1CC[C@H](CNS(=O)(=O)c2ccccc2)CC1` (relative stereo) [Compound 39, rac-[1α,2α(trans)]-N-[[[[[1,2,3,4-tetrahydro-6-methoxy-1-(1-propene-3-yl)-2-naphthalenyl]amino]methyl]4-cyclohexyl]methyl] benzenesulfonamide] to `CCC[C@@H]1c2ccc(OC)cc2CC[C@@H]1NC[C@H]1CC[C@H](CNS(=O)(=O)c2ccccc2)CC1` (relative stereo) [Compound 42, rac-[1α,2α(trans)]-N-[[[[[1,2,3,4-tetrahydro-6-methoxy-1-(n-propyl)-2-naphthalenyl]amino]methyl]-4-cyclohexyl]methyl] benzenesulfonamide], the inhibition at 3 µM falls from 102% to 101%.

Going from `O=[N+]([O-])c1ccccc1S(=O)(=O)NC[C@H]1CC[C@H](CNC2CCc3cc(Cl)ccc3C2Cc2ccccc2)CC1` (stereo partly shown) [Compound 64] to `O=[N+]([O-])c1ccccc1S(=O)(=O)NC[C@H]1CC[C@H](CNC2CCc3cc(F)ccc3C2Cc2ccccc2)CC1` (relative stereo) [Compound 72], the inhibition at 3 µM rises from 93% to 106%.

First: O=S(=O)(NC[C@H]1CC[C@H](CNC2CCc3cc(F)ccc3C2Cc2ccccc2)CC1)c1ccccc1Cl (relative stereo) [Compound 73]
Second: O=S(=O)(NC[C@H]1CC[C@H](CNC2CCc3cc(F)ccc3C2Cc2ccccc2)CC1)c1ccccc1Br (relative stereo) [Compound 74]
The inhibition at 3 µM of the first is higher: 107% for the first, 105% for the second.

First: COc1cccc(CC2c3ccc(OC)cc3CCC2NC[C@H]2CC[C@H](CNS(=O)(=O)c3ccccc3)CC2)c1 (relative stereo) [Compound 83]
Second: COc1ccc(CC2c3ccc(OC)cc3CCC2NC[C@H]2CC[C@H](CNS(=O)(=O)c3ccccc3)CC2)cc1 (stereo partly shown) [Compound 86]
The inhibition at 3 µM of the first is higher: 92% for the first, 25% for the second.

Going from `COc1ccc2c(c1)CCC(NC[C@H]1CC[C@H](CNS(=O)(=O)c3ccccc3)CC1)C2Cc1ccccc1Cl` (relative stereo) [Compound 95] to `COc1ccc2c(c1)C(Cc1ccccc1)C(NC[C@H]1CC[C@H](CNS(=O)(=O)c3ccccc3)CC1)CC2` (stereo partly shown) [Compound 79], the inhibition at 3 µM rises from 84% to 93%.

Compared with `COc1ccc2c(c1)CCC(NC[C@H]1CC[C@H](CNS(=O)(=O)c3ccccc3)CC1)C2Cc1c(F)cccc1F` (relative stereo) [Compound 89], `COc1ccc2c(c1)CCC(NC[C@H]1CC[C@H](CNS(=O)(=O)c3cccc(F)c3)CC1)C2Cc1ccccc1` (stereo partly shown) [Compound 60] is lower in inhibition at 3 µM: 98% for the first, 94% for the second.

First: O=S(=O)(NC[C@H]1CC[C@H](CNC2CCc3cc(F)c(F)cc3C2Cc2ccccc2)CC1)c1ccccc1 (relative stereo) [Compound 107]
Second: O=S(=O)(NC[C@H]1CC[C@H](CNC2CCc3cc(O)c(O)cc3C2Cc2ccccc2)CC1)c1ccccc1 (relative stereo) [Compound 109]
The inhibition at 3 µM of the first is higher: 103% for the first, 101% for the second.

Going from `COc1ccc2c(c1)CCC(NC[C@H]1CC[C@H](CNS(=O)(=O)c3cccc(Br)c3)CC1)C2Cc1ccccc1` (stereo partly shown) [Compound 69] to `COc1ccc2c(c1)CCC(NC[C@H]1CC[C@H](CNS(=O)(=O)c3ccc(F)cc3)CC1)C2Cc1ccccc1` (relative stereo) [Compound 58], the inhibition at 3 µM falls from 93% to 91%.

Going from `COc1ccc2c(c1)CCC(NC[C@H]1CC[C@H](CNS(=O)(=O)c3ccccc3[N+](=O)[O-])CC1)C2Cc1ccccc1OC` (stereo partly shown) [Compound 91] to `COc1ccc2c(c1)CCC(NC[C@H]1CC[C@H](CNS(=O)(=O)c3ccccc3C(F)(F)F)CC1)C2Cc1ccccc1` (stereo partly shown) [Compound 65], the inhibition at 3 µM falls from 92% to 0%.

Going from `COc1ccc2c(c1)CCC(NC[C@H]1CC[C@H](CNS(=O)(=O)c3ccc(S(C)(=O)=O)cc3)CC1)C2Cc1ccccc1` (relative stereo) [Compound 55] to `COc1ccc2c(c1)CCC(NC[C@H]1CC[C@H](CNS(=O)(=O)c3ccccc3)CC1)C2Cc1ccc(C(F)(F)F)cc1` (stereo partly shown) [Compound 100], the inhibition at 3 µM rises from 90% to 93%.

First: O=S(=O)(NC[C@H]1CC[C@H](CNC2CCc3cccc(Cl)c3C2Cc2ccccc2)CC1)c1ccccc1 (relative stereo) [Compound 106]
Second: COc1ccc2c(c1)CC[C@H](NC[C@H]1CC[C@H](CNS(=O)(=O)c3cccc4ccccc34)CC1)[C@@H]2Cc1ccccc1 (relative stereo) [Compound 51]
The inhibition at 3 µM of the first is higher: 104% for the first, 95% for the second.

First: COc1ccc2c(c1)CC[C@H](NCCCCCNS(=O)(=O)c1ccc3ccccc3c1)[C@@H]2Cc1ccccc1 (relative stereo) [Compound 11, rac-[1α,2α(trans)]-N-[[[[[1,2,3,4-tetrahydro-6-methoxy-1-(phenylmethyl)-2-naphthalenyl]amino]-5-pentyl]2-naphthalenesulfonamide]
Second: O=S(=O)(NCCCCCN[C@H]1CCc2ccccc2[C@H]1Cc1ccccc1)c1ccc2ccccc2c1 (relative stereo) [Compound 46]
The inhibition at 3 µM of the first is higher: 95% for the first, 89% for the second.

First: COc1ccc2c(c1)CCC(NC[C@H]1CC[C@H](CNS(=O)(=O)c3ccccc3)CC1)C2Cc1cccc(C(F)(F)F)c1 (stereo partly shown) [Compound 99]
Second: COc1ccc2c(c1)CC[C@H](NC[C@H]1CC[C@H](CNS(=O)(=O)c3cccs3)CC1)[C@@H]2Cc1ccccc1 (relative stereo) [Compound 59]
The inhibition at 3 µM of the first is lower: 99% for the first, 102% for the second.

First: O=S(=O)(NCCCCNC1CCc2ccccc2C1Cc1ccccc1)c1ccc2ccccc2c1 (stereo not shown) [Compound 45]
Second: COc1ccc2c(c1)CC[C@H](NC[C@H]1CC[C@H](CNS(=O)(=O)c3ccc4ccccc4c3)CC1)[C@@H]2Cc1cccnc1 (relative stereo) [Compound 18, rac-[1α,2α(trans)]-N-[[[[[1,2,3,4-tetrahydro-6-methoxy-1-(3-pyridinylmethyl)-2-naphthalenyl]amino]methyl]-4-cyclohexyl]methyl]2-naphthalenesulfonamide]
The inhibition at 3 µM of the first is lower: 58% for the first, 96% for the second.
